Reference: patent publication US8383582B2, “Inhibitor against forming biofilm comprising κ-casein macropeptide” (Industry Foundation of Chonnam National University, priority 2010, dated 2013)

How the values were obtained:
[1] = system: L. monocytogenes Scott A biofilm cells; test: Two-dimensional gel electrophoresis / LC-MS/MS of biofilm cell protein extracts; type: cell-based, Listeria monocytogenes
Method: This biofilm formation protocol was adapted from that used for the microtiter plate assay in this invention, to obtain a sufficient quantity of biofilm cells for two-dimensional gel electrophoresis (2-DE). Biofilms were prepared by using a slight modification of a previously described method (Ren et al., 2004). L. monocytogenes was grown in TSBYE overnight, and a 2.5 ml overnight culture was washed twice with PBS. Then, the cells were inoculated into a 250-ml shake flask containing 100 ml fresh MWB with or without the effective concentration of CMP on 10 g sterilized glass wool (Pyrex fiber glass; Corning, N.Y., USA). The cells were incubated with shaking (250 rpm in a shaking incubator; Vision Scientific Co., Ltd., Korea) at 30° C. to form a biofilm on the glass wool. After 24 h inoculation, the glass wool was retrieved from the culture, and quickly and gently washed twice in 100 ml of 0.85% sodium chloride buffer (within 30 s) at 4° C. The biofilm cells were removed from the glass wool by sonication in 200 ml of 0.85% sodium chloride buffer at 4° C. for 2 min. The buffer was then centrifuged (8,000×g in a VS-21S MT centrifuge; Vision Scientific Co., Ltd.) for 10 min at 4° C. to precipitate the biofilm cells. These cells were washed twice by centrifugation (8,000×g, 10 min, 4° C.) with 0.85% sodium chloride buffer; the cell pellets were flash-frozen in liquid nitrogen. While sonicating, suspended biofilm cells with an optical density at 600 nm of 2 were harvested by centrifugation (8,000×g) at room temperature for 10 min in an Eppendorf tube. The cell pellets were then flash-frozen in liquid nitrogen and kept at −80° C. until protein extraction.
The biofilm cells harvested from the glass wool were suspended in the same lysis buffer (TE buffer; 40 mM Tris, 1 mM EDTA, pH 8.0) and lysed by using Ultraschallprozessor UP200S (amplification 70, 0.5 cycle; Dr. Hielscher GmbH) 20 times for 30 s on ice. Following sonication, the unlysed cells, cell debris, and glass fibers were removed by centrifugation (8,000×g, 4° C.), and the supernatant fluids were recovered.
Protein samples were precipitated by using the phenol protocol of Hanna et al. (2000). The protein concentration was determined by using the modified Bradford assay method (Ramagli, 1999). The protein samples were stored at −80° C. until proteomic analysis.
The method described by Kim et al. (2006) with slight modifications was used for 2-DE. In the first dimension of isoelectric focusing (IEF), precast immobilized pH gradient (IPG) strips, with a nonlinear gradient from pH 3 to 10 (Bio-Rad Laboratories, Richmond, Calif., USA), were rehydrated for 12-18 h with 500 μg of protein in 300 μl of rehydration buffer (8 M urea, 2% CHAPS, 50 mM DTT, 10% isopropanol, 5% glycerol, 0.002% bromophenol blue, 0.2% ampholytes, water). In accordance with the manufacturer's instructions, focusing was performed by using a Protean IEF cell system (Bio-Rad Laboratories) at 20° C. under 60,000 Vh. After IEF, the strips were incubated for 10 min in equilibration buffer I (6 M urea, 2% SDS, 20% glycerol, 130 mM DTT, 0.375 M Tris-HCl [pH 8.8]), followed by another 10 min in equilibration buffer II (6 M urea, 2% SDS, 20% glycerol, 135 mM iodoacetamide, 0.375 M Tris-HCl [pH 8.8]). After equilibration, the strips were transferred to 12.5% sodium dodecyl sulfate (SDS)-polyacrylamide gels (20×22 cm) for running in the second dimension.
The proteins were separated by using a Protean II xi system (Bio-Rad Laboratories) with 20 mA per gel at 4° C. The protein spots were visualized by blue-silver staining (Candiano et al., 2004). The stained gels were then scanned with a densitometric scanner (UTA 2100XL; UMAX, Dallas, Tex., USA), and the spots were analyzed by using the PDQuest software (Bio-Rad Laboratories) in accordance with the manufacturer's instructions. Four gels resulting from two independent experiments were obtained, and two gels of good quality were used for analysis. […]

[2] = system: L. monocytogenes Scott A to HT-29 cell; test: Adhesion analysis on HT-29 cells; type: cell-based, Listeria monocytogenes; conditions: CMP 0.4 mg/ml, at the lower MOI, 30 min 37° C.
From the text: The human intestinal epithelial cell line HT-29 and the human gastric epithelial cell line AGS were purchased from the Korea Cell Line Bank (KCLB; Seoul, Korea). HT-29 cells have been extensively used as a model system for studying interaction of enteric pathogens with intestinal epithelial cells. All media and fetal bovine serum (FBS) were obtained from Gibco BRL (Life Technologies Inc., Grand Island, N.Y., USA) and JBI (Jeil Biotech services Inc., Seoul, Korea). The HT-29 and AGS cells were grown in RPMI-1640 medium which was supplemented with 10% heat-inactivated FBS. The cells were routinely cultured at 37° C. in 5% CO2 incubator with 6-well or 12-well tissue culture plates for adhesion and invasion assays and in 100-mm-diameter tissue culture plates for RNA isolation.
Prior to the adhesion assay, the HT-29 and the AGS cells monolayers were washed three times in pre-warm PBS (25° C.) to remove any culture medium and non-attached cells. The adhesion assays were performed using L. monocytogenes Scott A according to the method of Hagman et al. (1999) with modifications. Bacteria were grown overnight at 37° C. in TSBYE. […]

[3] = presence of 0.4 mg/ml CMP vs absence

κ-casein macropeptide [CMP]
protein spots with increase or decrease in amounts compared to the control ([1]; 0.4 mg/ml CMP, about 320 spots visualized): two and seven spots were up- and down-regulated | FC, Fold difference in biofilm: spot 0302 enolase [1, 3]: −3.8 Fold | FC, Fold difference in biofilm: spot 2004 glutamine synthetase [1, 3]: +2.4 Fold | FC, Fold difference in biofilm: spot 4405 6-phosphofructokinase [1, 3]: −2.8 Fold | FC, Fold difference in biofilm: spot 5104 hypothetical protein Smal_0271 [1, 3]: ∇ | FC, Fold difference in biofilm: spot 5105 conserved hypothetical protein [1, 3]: −2.0 Fold | FC, Fold difference in biofilm: spot 5206 Gap [1, 3]: +2.9 Fold | FC, Fold difference in biofilm: spot 5207 hypothetical protein Smal_0271 [1, 3]: −2.4 Fold | FC, Fold difference in biofilm: spot 6103 glutamine synthetase [1, 3]: −2.0 Fold | FC, Fold difference in biofilm: spot 7202 phosphoglycerate mutase 1 family [1, 3]: −3.2 Fold | adhesion of L. monocytogenes Scott A [2]: prevented
